One series relates to PBMC. The series is described as follows: Antiinflammatory activity in human PBMC assessed as inhibition of LPS-induced TNFalpha production treated 30 mins before LPS challenge measured after 6 hrs of LPS induction by ELISA. Format: functional, cell-based. (In general: In an ELISA, binding on a coated surface is turned into a signal by an enzyme label.)
Series [1] concerns Serum. The series is described as follows: Drug level in Lewis rat serum at 3 mg/kg, po. Format: ADME, organism-based. Further details: dose 3 mg/kg, route oral. Particulars: in vivo, read-out: Drug uptake.
Series [2] has as its system Rattus norvegicus. In words: Antiinflammatory activity in Lewis rat assessed as inhibition of LPS-induced TNFalpha production at 30 mg/kg, po administered 4 hrs before LPS challenge measured after 90 mins by ELISA. It is filed as functional. Also on record: scale not given: the % may be the effect or the level left.
Series [3] can be described thus: Half life in rat at 2 mg/kg, iv. Particulars: in vivo. Format: ADME, organism-based. Further details: dose 2 mg/kg, route intravenous.
A short description of series [4]: Inhibition of IKK1-catalyzed phosphorylation of GST-tagged IkappaBalpha fusion protein by fluorescence polarization assay. Background: In fluorescence polarisation assays a small probe gives low polarisation when free and higher when bound to something large.
Series [5] relates to Blood. In words: Antiinflammatory activity in Lewis rat whole blood assessed as inhibition of LPS-induced TNFalpha production treated 45 mins before LPS challenge measured after 4 hrs by ELISA. It is filed as functional, tissue-based.
The nature of series [6]: Oral bioavailability in rat at 10 mg/kg. It is filed as ADME, organism-based. Particulars: in vivo.
Series [7] can be described thus: Mean residence time in rat at 10 mg/kg, po. As to conditions: in vivo. Further details: dose 10 mg/kg, route oral. Format: ADME, organism-based.
In series [8] the test system is Serum. In words: Drug level in Lewis rat serum at 30 mg/kg, po. Format: ADME, organism-based. Further details: dose 30 mg/kg, route oral. As to conditions: in vivo, read-out: Drug uptake.
Series [9] is described as follows: Aqueous solubility at pH 1.0. It is filed as physicochemical. Particulars: aqueous solution.
In series [10] the test system is Serum. In words: Drug level in Lewis rat serum at 10 mg/kg, po. Particulars: in vivo, read-out: Drug uptake. Also on record: dose 10 mg/kg, route oral. It is filed as ADME, organism-based.
Series [11] in a line: Half life in rat at 10 mg/kg, po. Format: ADME, organism-based. Also on record: dose 10 mg/kg, route oral. As to conditions: in vivo.
Series [12] can be described thus: Total AUC in rat at 2 mg/kg, iv. Format: ADME, organism-based. Also on record: time AUCmax, dose 2 mg/kg, route intravenous. As to conditions: in vivo.
The target in series [13] is Inhibitor of nuclear factor kappa-B kinase subunit alpha (Homo sapiens) (UniProt O15111). The series is described as follows: Inhibition of IKK2-catalyzed phosphorylation of GST-tagged IkappaBalpha fusion protein by fluorescence polarization assay.
Chain of Inhibitor of nuclear factor kappa-B kinase subunit alpha (Homo sapiens) (O15111 whole entry, looked up, the tested form may be a part): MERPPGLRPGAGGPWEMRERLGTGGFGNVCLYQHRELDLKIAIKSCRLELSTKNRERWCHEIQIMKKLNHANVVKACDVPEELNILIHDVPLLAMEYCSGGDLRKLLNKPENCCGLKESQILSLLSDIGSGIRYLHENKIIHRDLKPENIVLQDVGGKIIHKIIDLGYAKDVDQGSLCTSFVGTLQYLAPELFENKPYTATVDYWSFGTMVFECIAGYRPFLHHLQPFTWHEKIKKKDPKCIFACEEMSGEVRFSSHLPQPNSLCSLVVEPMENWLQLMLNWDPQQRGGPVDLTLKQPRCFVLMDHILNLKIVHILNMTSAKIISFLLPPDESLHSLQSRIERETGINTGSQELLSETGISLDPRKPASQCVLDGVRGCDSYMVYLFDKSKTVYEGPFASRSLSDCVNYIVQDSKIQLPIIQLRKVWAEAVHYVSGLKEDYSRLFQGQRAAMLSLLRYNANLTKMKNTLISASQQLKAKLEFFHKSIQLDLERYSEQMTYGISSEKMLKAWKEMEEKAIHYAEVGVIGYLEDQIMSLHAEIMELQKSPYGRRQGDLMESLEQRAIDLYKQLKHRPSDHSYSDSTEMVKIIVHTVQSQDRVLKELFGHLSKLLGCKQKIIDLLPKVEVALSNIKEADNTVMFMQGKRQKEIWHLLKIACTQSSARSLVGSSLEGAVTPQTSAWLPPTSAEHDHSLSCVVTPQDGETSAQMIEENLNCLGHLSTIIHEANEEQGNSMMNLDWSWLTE
Series [14] is described as follows: Volume of distribution at steady state in rat at 2 mg/kg, iv. Format: ADME, organism-based. Further details: dose 2 mg/kg, route intravenous. As to conditions: in vivo, read-out: Vdss.
Series [15] deals with Blood. In words: Antiinflammatory activity in Lewis rat whole blood assessed as inhibition of LPS-induced TNFalpha production at 17 uM treated 45 mins before LPS challenge measured after 4 hrs by ELISA. It is filed as functional, tissue-based.
A short description of series [16]: Total AUC in rat at 10 mg/kg, po. Format: ADME, organism-based. Also on record: time AUCmax, dose 10 mg/kg, route oral. As to conditions: in vivo.
Series [17] in a line: Clearance in rat at 2 mg/kg, iv. It is filed as ADME, organism-based. Particulars: in vivo. Further details: dose 2 mg/kg, route intravenous.
Series [18] deals with Rattus norvegicus. In words: Antiinflammatory activity in po dosed Lewis rat assessed as inhibition of LPS-induced TNFalpha production administered 4 hrs before LPS challenge measured after 90 mins by ELISA. Format: functional, organism-based.
A short description of series [19]: Mean residence time in rat at 2 mg/kg, iv. It is filed as ADME, organism-based. Also on record: dose 2 mg/kg, route intravenous. Particulars: in vivo.
The nature of series [20]: Solubility of the compound. Format: physicochemical.

Here are results for 15 compounds from ChEMBL document CHEMBL1151888, “Synthesis, initial SAR and biological evaluation of 1,6-dihydroimidazo[4,5-d]pyrrolo[2,3-b]pyridin-4-amine derived inhibitors of IkappaB kinase” (Bioorg Med Chem Lett, 2009).

Converted amounts (≈) assume the structure as drawn. The source made the active and inactive calls.

For orientation: IC50 means the concentration needed to halve the response being measured. In the case of `CNc1nc2c(nc(-c3ccccc3)n2C)c2c1ncn2C`, the IC50 in the series with PBMC was 446 nM.

For the compound `CNc1nc2sc(-c3ccccc3)nc2c2c1ncn2C`, in the series with PBMC, the IC50 was 310 nM.

For orientation: half-life means the time needed for the level to fall by half in the phase considered. Broadly, the bioavailability is the share of a dose that reaches the circulation, judged against a reference dose that is usually intravenous. As usually defined, the MRT is the average time that molecules of a dose stay in the body. As a reminder, the solubility is the concentration that dissolves in the medium under given conditions. What is called AUC is the area under the concentration-time curve, a measure of exposure. For orientation: clearance means the rate of elimination divided by the concentration. Turning to `CNc1nc2[nH]c(-c3cccc(CNC(=O)CCOC)c3)cc2c2c1ncn2C`, the concentration was 900 nM in the series on Serum [1], 17000 nM with Serum [8] and 3000 nM in the series on Serum [10]. Besides, the values for the Activity in the series with Rattus norvegicus [2] and in the series with Rattus norvegicus [18] were 85% and “Dose-dependent effect”, respectively. Moreover, the half-life in series [3] is 4.8 h; in [11], 11 h. For the same compound, the half-maximal inhibitory concentration (IC50) turned out to be 12 nM in [4], 8000 nM in the series with Blood [5], 370 nM in the series on PBMC and 2620 nM in [13]. In series [6], this compound displayed a bioavailability of 31%. Besides, the mean residence time MRT in series [7] came to 14.7 h; in series [19] it was 2.1 h. In addition, the concentration in solution in [9] (solubility) came to 1820 µg/mL (≈ 4.65 mM). For the same compound, the AUC was 46.9 µM·h in [12] and 71.7 µM·h in series [16]. For the same compound, the Vd in [14] is 0.2 L/kg. Further, the result in the series with Blood [15] was Active. In series [17], this compound showed a clearance of 1.8 mL/min/kg.

Turning to `CNc1nc2[nH]c(-c3cccc(F)c3)cc2c2c1ncn2C`, in the series on PBMC, the IC50 amounted to 153 nM.

With `CNc1nc2oc(-c3ccccc3)nc2c2c1ncn2C`, the IC50 with PBMC turned out to be 390 nM.

In the case of `CNc1nc2[nH]c(-c3cccc(CNC(C)=O)c3)cc2c2c1ncn2C`, the IC50 in series [4] worked out at 14 nM; in the series on PBMC, 372 nM; in [13], 633 nM.

`CNc1nc2[nH]c(-c3cccc(CN)c3)cc2c2c1ncn2C`: in the series on PBMC, the IC50 stood at 340 nM.

With `CNc1nc2[nH]c(-c3cccc(CNC(=O)CCC(N)=O)c3)cc2c2c1ncn2C`, the results for the IC50 (in series [4]; in the series with PBMC) were 22 nM and 1000 nM, respectively.

As to `CNc1nc2[nH]c(-c3cccc(C#N)c3)cc2c2c1ncn2C`, the IC50 in [4] came to 7 nM; with PBMC, 86 nM. The compound also displayed a solubility in series [20] of less than 5 µg/mL.

In the case of `CNc1nc2[nH]c(-c3ccc(F)cc3)cc2c2c1ncn2C`, the values for the IC50 (in series [4]; in the series on PBMC; in series [13]) were 43 nM, 538 nM and 1730 nM, respectively.

Regarding `CNc1nc2[nH]c(-c3cccc(CNC(=O)CO)c3)cc2c2c1ncn2C`, the IC50 in the series with PBMC was 478 nM.

On to `CNc1nc2[nH]c(-c3ccccc3F)cc2c2c1ncn2C`, for which, in the series with PBMC, the IC50 stood at 931 nM.

In the case of `CNc1nc2[nH]c(-c3cccc(CNC(=O)CN(C)C)c3)cc2c2c1ncn2C`, the values for the IC50 (in series [4]; in the series on PBMC) were 79 nM and 2000 nM, respectively.

Take `CNc1nc2[nH]c(-c3cccc(OC)c3)cc2c2c1ncn2C`: the IC50 in [4] worked out at 8 nM; in the series with PBMC it was 320 nM.

Consider `CNc1nc2[nH]c(-c3ccccc3)cc2c2c1ncn2C`, for which the IC50 in the series with PBMC came to 800 nM.
